# Source: patent US10000793B2, “Method for enumeration of mammalian cell micronuclei, while distinguishing chromatin of dead and dying cells” (priority 2004, dated 2018)
# Where a name gives a salt, the structure may show the parent alone. Read-outs that look alike come from different tables or passages of the source.
# Tests used:
# L5178Y cells [1] = assay: In vitro micronucleus test, flow cytometric (EMA/SYTOX) and microscopy scoring, L5178Y cells
# Description: L5178Y cells were treated over a range of chemical concentrations in culture medium, one 25 cm^2 flask per concentration. During treatment, cells were at 3×10^5/ml in a volume of 20 ml per flask (this high number of cells facilitated multiple readings per flask). After a 4 hr treatment period, cells were washed one time via centrifugation at 600×g, resuspended in a volume of 40 ml culture medium, and transferred to 75 cm^2 flasks. Cells were re-incubated at 37° C. for 20 additional hrs—the equivalent of two normal doubling times.
# In this case, cultures (1.5×10^5 cells/ml, 40 ml/flask) were continuously exposed to chemical over a range of concentrations. Cells were harvested after 24 hrs of incubation at 37° C. without recovery.
# At the time of cell harvest, FDA+ and PI+ cell counts were performed as described supra. […] Cells were collected via centrifugation at approximately 600×g for 5 minutes. Supernatants were aspirated, and cells were resuspended with gentle tapping. […] These tubes were placed in racks and submerged to a depth of approximately 2 cm in crushed ice. A visible light source (60 watt light bulb) was positioned approximately 30 cm above the tubes for 20 minutes.
# After the photoactivation period, 800 μl cold buffer solution was added to each sample. From this point forward, exposure of samples to light was minimized with dim lighting and foil. The contents of the tubes were then transferred to 15 ml polypropylene centrifuge tubes, and 8 ml of cold buffer solution was added to each sample. Cells were collected via centrifugation, and supernatants aspirated such that approximately 50 μl of supernatant remained per tube. Cells were gently resuspended with tapping, and were maintained at room temperature until the follow procedures were initiated (within 30 minutes). 1 ml “Lysis Solution 1” was added slowly to each tube (approximately 15 seconds per sample). […] Upon addition of Lysis Solution 1, the tube was immediately vortexed (medium setting) for 5 seconds. These samples were kept at room temperature for 1 hr. At this time, 1 ml “Lysis Solution 2” was injected forcefully into each tube, which were immediately vortexed (medium) for 5 seconds. […] These specimens were maintained at room temperature for 30 minutes. Subsequently, samples were stored at 4° C. until flow cytometric analysis (up to two days following cell harvest/staining/lysis procedures).
# (§1) Samples, stored for up to two days at 4° C., were gently tapped to resuspend the particles. Data acquisition and analysis was then accomplished with a single-laser flow cytometer, 488 nm excitation (FACSCalibur, BD Biosciences, San Jose, Calif.). Instrumentation settings and data acquisition/analysis were controlled with CellQuest software v3.3 (BD Biosciences). SYTOX-associated fluorescence emission was collected in the FL1 channel (530/30 band-pass filter), and EMA-associated fluorescence was collected in the FL3 channel (670 long-pass filter). Events were triggered on FL1 fluorescence. The FCM gating strategy that was developed for this micronuclei scoring application required events to meet each of six separate criteria before they were scored as nuclei or micronuclei (see FIGS. 2A-H). The incidence of flow cytometric-scored micronuclei is expressed as frequency percent (no. micronuclei/no. nuclei×100), and are based on the acquisition of 20,000 EMA-negative nuclei per specimen.
# Approximately 3.5×10^6 cells per culture were centrifuged and resuspended with 20 μl heat-inactivated fetal bovine serum. 5 μl aliquots were applied to glass slides. Air dried slides were submerged in absolute methanol for 10 minutes and then stored in the dark until staining and analysis. […] An Olympus BH-2 fluorescence microscope was used for micronuclei measurements at 400× magnification. For each treated culture, 2000 mononucleated, non-apoptotic, non-necrotic cells were analyzed for the presence of micronuclei (1000 cells×2 slides per culture).
# L5178Y cells [2] = system: L5178Y cells
# Description: Once L5178Y or CHO-K1 cells were collected as described above, cytotoxicity measurements were performed as follows: 0.5 ml of each culture was added to flow cytometry tubes containing fluorescein diacetate (“FDA”) (0.075 μg/ml), propidium iodide (“PI”) (25 μg/ml), and 2.5 μm Carmine 580/620 microspheres (Molecular Probes, Eugene, Oreg.). The concentration of these “counting beads” was determined with a hemacytometer. […] Relative survival was then calculated as follows: The number of FDA+ cells in each chemical treatment culture was expressed as a percentage of the number of FDA+ cells in the concurrent solvent control culture.
# L5178Y cells [3] = system: L5178Y cells; remark: listed apart in the source
# Description: as §1
# That is, by displaying the SYTOX-associated signal as fluorescence area (FL1-A), qualitative assessments of cell cycle-related effects were possible. […] Note that while these observations are presented in a qualitative manner, software packages are available which are capable of deconvoluting such histograms to provide quantitative assessment of cell cycle effects.
# CHO-K1 cells = assay: In vitro micronucleus test, flow cytometric and microscopy scoring, CHO-K1 cells; type: cell-based, Chinese hamster; details: 4 hr treatment, 20 hr recovery, 0-40 μg/ml, FIG. 8
# Description: On the day before treatment, CHO-K1 cells were harvested and counted, and their density was adjusted to 6×10^4/ml in culture medium. This cell suspension was added to 75 cm^2 flasks (20 ml per flask; one flask per exposure group). After incubating for approximately 16 to 24 hrs at 37° C., spent culture medium was replaced with 20 ml fresh, pre-warmed medium per flask. Methyl methanesulfonate was added from 1000× strength stock solutions for final concentrations of 0, 10, 20, 30, and 40 μg/ml, at which time cultures where reincubated at 37° C. After a 4 hr treatment period, culture medium was aspirated, cells were rinsed one time with an isotonic salt solution, and then 20 ml fresh, pre-warmed culture medium was added to each flask. These cultures were reincubated for a 20 hr recovery period. At the time of cell harvest, 2.5 ml typsin/EDTA solution per flask was used to detach cells from culture vessels. Cells were collected via centrifugation and responded in culture medium.
# (§2) Events were triggered on FL1 fluorescence.
# 5 μl aliquots were applied to glass slides.
# L5178Y cells [4] = assay: Cytotoxicity, % EMA-positive events by flow cytometry; type: cell-based
# Source text: as §2
# In addition to supplying genotoxicity and cell cycle information, these flow cytometric analyses were capable of concurrently providing a measure of cytotoxicity. Specifically, the frequency of EMA-positive events is a statistic that relates to membrane integrity. […] This statistic could be useful for helping to identify chemical concentrations that are too cytotoxic for reliable genotoxicity assessment.
Compound,Cell Cycle Effect (L5178Y cells [3]),MN Induction (≥3-fold) (L5178Y cells [1]),other results
O=P1(N(CCCl)CCCl)NCCCO1 (centres unmarked) [Cyclophosphamide monohydrate],,,"MN Induction (≥3-fold) (L5178Y cells [1]; L5178Y cells, treatment/recovery 4/20 hrs, benzo[a]pyrene and cyclophosphamide with 10% v/v metabolic activation system): Yes"
NC(=O)NO [Hydroxyurea],+++,Yes,
COS(C)(=O)=O [Methyl methanesulfonate],+++,Yes,micronucleus frequency (CHO-K1 cells): dose-related increase
OC[C@H]1O[C@@](CO)(O[C@H]2O[C@H](CO)[C@@H](O)[C@H](O)[C@H]2O)[C@@H](O)[C@@H]1O [Sucrose],−,,"% EMA-positive events (L5178Y cells [4]): non-cytotoxic; micronucleus-induction (L5178Y cells [1]; L5178Y cells, continuous-treatment exposure (24 hr)): not evident"

# The next lines start with results.
Cell Cycle Effect (L5178Y cells [3]),Compound,MN Induction (≥3-fold) (L5178Y cells [1]),other results
−,C[C@@H]1C[C@H]2[C@@H]3CCC4=CC(=O)C=C[C@]4(C)[C@@]3(F)[C@@H](O)C[C@]2(C)[C@@]1(O)C(=O)CO [Dexamethasone],No,cell survival (L5178Y cells [2]): significantly affected cell survival; changes in % micronuclei (L5178Y cells [1]): Nil to slight changes; increase in % micronuclei relative to solvent control (L5178Y cells [1]; mouse): less than 3 fold
+++,CC[C@]1(O)C[C@@H]2CN(CCc3c([nH]c4ccccc34)[C@@](C(=O)OC)(c3cc4c(cc3OC)N(C)[C@H]3[C@@](O)(C(=O)OC)[C@H](OC(C)=O)[C@]5(CC)C=CCN6CC[C@]43[C@@H]65)C2)C1 [Vinblastine sulfate],Yes,"micronucleus response, continuous 24 hr exposure versus short-term treatment (L5178Y cells [1]): greater"
